In US10894059B2, “NADH compound composition, and preparation and use thereof” (BONTAC BIO-ENGINEERING (SHENZHEN) CO., LTD, priority 2017, dated 2021):

Tests used:
[1] = test system: mice fed with high fat feed; assay: Comparative pharmacological evaluation in obese mice (high fat feed model); type: in vivo; conditions: gavage once a day, 50 mg according to L-carnitine, 4 weeks
Experimental: Fifty male mice are selected at 6 weeks of age. The basal feed is fed for two weeks before the start of the experiment, and the initial body weight is 26±2 g. All experimental groups are randomly divided into 5 groups of 10 each, and the groups were as follows. (1) obesity experiment group: 1 group; (2) obesity experiment group: 2 groups; (3) obese control group; (4) obese blank group; (5) normal blank group Cage feeding, 5 in 1 cage; ambient temperature of 22±2° C., humidity of 45˜65%; the light illumination alternates for 12 h, and the mice are free to eat and drink. Among them, the normal blank group is fed with normal feed, and the other 4 groups are fed with high fat feed; changes in body weight are recorded twice a week; the feeding process lasts 6 weeks to establish the model. Group (1) is given a solution of the NADH compound composition prepared in Embodiment 1 by gavage once a day; Group (2) is given a mixture of NADH and L-carnitine in Embodiment 1 (without other ingredients) by gavage once a day; Group (3) is given L-carnitine by gavage once a day; the amount of administration for Group (1), Group (2) and Group (3) is 50 mg according to L-carnitine; during the period, 5 groups of mice are fed with normal diet in free diet, and continued to be observed for 4 weeks. […]

[2] = people taking L-carnitine for weight loss, as much as 1˜3 g; cited from earlier work

C[N+](C)(C)C[C@H](O)CC(=O)[O-] [L-carnitine, β-hydroxy γ-trimethylammonium butyrate]
Body fat ratio (%) ([1]; (fat around kidney + fat around testicles)/body weight after test*100): 2.35 ± 2.69% | Body weight growth rate (%) ([1]; weight growth/experimental initial weight*100): 44.98 ± 3.44% | absolute bioavailability [2]: 15.9±4.9%
